According to patent US5681826A, “Saccharide composition with reduced reducibility, and preparation and uses thereof” (Kabushiki Kaisha Hayashibara Seibutsu Kagaku Kenkyujo, priority 1994, dated 1997):
Each block holds one molecule with its values, some of them ahead of it.

What was measured:
[1] = tested on: non-reducing saccharide-forming enzyme; assay type: biochemical, Rhizobium sp. M-11; conditions: for Percentage of remaining substrate on HPLC: non-reducing saccharide-forming enzyme, 48 h, pH 7; for Percentage of newly formed product (P I to P V) on HPLC: 20 w/v % substrate, 2 units/g, 40°C., pH 7.0, 48 hours, label = substrate
Procedure: An aqueous solution containing 20 w/v % glucose, maltose, maltotriose, maltotetraose, maltopentaose, maltohexaose or maltoheptaose as a substrate was prepared, and mixed with 2 units/g substrate, d.s.b., of the purified enzyme preparation obtained in Experiment 2, and the resultant mixture was subjected to an enzymatic reaction at 40° C. and pH 7.0 for 48 hours. The reaction mixture was desalted and analyzed on high-performance liquid chromatography (HPLC) using "WAKOBEADS WB-T-330 COLUMN", a product of Wako Pure Chemical Industries Ltd., Tokyo, Japan. The HPLC procedure was conducted at ambient temperature and a flow rate of 0.5 ml/min of water as an eluent, and "RI-8012", a differential refractometer commercialized by Tosho Corporation, Tokyo, Japan, was used for analyzing reaction products.

[2] = Maillard reaction with glycine, absorbance at 480 nm; assay type: physicochemical; conditions: for Coloration degree (480 nm): one % glycine, 10% saccharide, pH 7.0, 100°C., 90 min, 1-cm cell
Procedure: A solution, containing one % glycine and 10% of a saccharide preparation PI, P II, P III, P IV or P V in Experiment 4 and 50 mM phosphate buffer (pH 7.0), was kept at 100° C. for 90 min, followed by cooling the resultant solution, and determining for absorbance at a wave length of 480 nm in a 1-cm cell. As a control, maltotriose, maltotetraose, maltopentaose, maltohexaose and maltoheptaose, as a material for the saccharide preparations, were similarly treated as above, and measured for absorbance at a wave length of 480 nm.
A solution, containing one % of glycine, 10% of a high-purity trehalose preparation with a purity of 99.5%, d.s.b., obtained by the method in Experiment 17, and 50 mM phosphate buffer (pH 7.0), was kept at 100° C. for 90 min, followed by cooling the resultant solution and determining the absorbance at a wave length of 480 nm in a 1-cm cell. As a control, glucose and maltose were similarly treated as above, and the resultants were determined for absorbance at a wave length of 480 nm.

[3] = Reducing power on the Somogyi-Nelson's method expressed by DE; assay type: physicochemical; conditions: d.s.b.
Procedure: The reducing powders of these novel high-purity saccharides were determined on the Somogyi-Nelson's method and expressed by DE.

[4] = target: T1, trehalose-releasing enzyme (Rhizobium sp. M-11, UniProt Q53238); assay: Action of trehalose-releasing enzyme on α-glycosyltrehalose and maltooligosaccharides (Table 13); assay type: biochemical; conditions: 20% substrate, 2 units/g, 40°C., pH 7.0, 48 hours; label = substrate
T1 construct: M-11 culture
T1 sequence (Q53238 1-596): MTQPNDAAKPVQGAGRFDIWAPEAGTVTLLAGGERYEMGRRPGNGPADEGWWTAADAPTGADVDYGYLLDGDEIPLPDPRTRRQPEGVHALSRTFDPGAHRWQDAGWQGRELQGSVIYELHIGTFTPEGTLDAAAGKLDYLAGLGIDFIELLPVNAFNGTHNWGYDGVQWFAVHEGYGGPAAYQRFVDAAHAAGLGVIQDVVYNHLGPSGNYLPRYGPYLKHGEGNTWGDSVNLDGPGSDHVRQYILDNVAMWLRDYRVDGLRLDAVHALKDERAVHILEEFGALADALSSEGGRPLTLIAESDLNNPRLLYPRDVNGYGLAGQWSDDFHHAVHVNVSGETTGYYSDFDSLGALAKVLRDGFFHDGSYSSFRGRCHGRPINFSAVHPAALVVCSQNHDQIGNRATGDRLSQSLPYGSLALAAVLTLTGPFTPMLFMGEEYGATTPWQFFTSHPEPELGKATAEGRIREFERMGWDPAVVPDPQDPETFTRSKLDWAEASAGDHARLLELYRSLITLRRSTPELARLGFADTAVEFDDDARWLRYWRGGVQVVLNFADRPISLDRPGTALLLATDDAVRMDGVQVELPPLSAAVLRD
Procedure: An aqueous solution containing 20%, d.s.b., of one of the above 5 non-reducing saccharide preparations, namely α-glycosyltrehalose preparations, was prepared, followed by mixing it with 2 units/g substrate, d.s.b., of the purified trehalose-releasing enzyme obtained in Experiment 15, and subjecting the resultant to an enzymatic reaction at 40° C. and pH 7.0 for 48 hours. The resultant each reaction mixture was desalted, and analyzed for saccharide composition on HPLC using "WAKOBEADS WB-T-330 column", a column of Wako Pure Chemical Industries Ltd., Tokyo, Japan. As a control, a fresh preparation of the same trehalose-releasing enzyme was allowed to act on maltotriose, maltotetraose, maltopentaose, maltohexaose or maltoheptaose, and the resultant each reaction mixture was analyzed for saccharide composition on HPLC.

[5] = Hydrolysis by rat intestinal acetone powder; assay type: in vitro ADME; conditions: pH 6.0, 37°C., 18 hours
Procedure: (§1) The enzymatic reaction with the α-amylase was as follows: Dissolve 10 mg of a substrate in one ml of 50 mM phosphate buffer (pH 6.9), mix the resultant solution with one unit of the α-amylase, and incubate the resultant mixture at 37° C. for 18 hours. The enzymatic reaction with the α-glucosidase was conducted under the same conditions as in the case of α-amylase except that 50 mM acetate buffer (pH 4.0) was used as a buffer. The enzymatic reaction using the rat intestinal acetone powder was carried out under the same conditions as in the case of α-amylase except that 50 mM maleate buffer (pH 6.0) was used as a buffer. The saccharide compositions obtained by the α-amylase, α-glucosidase and rat intestinal acetone powder are respectively in Tables 6, 7 and 8.

[6] = tested on: α-amylase; assay: Hydrolysis by α-amylase derived from pig pancreas; assay type: in vitro ADME
Procedure: as §1

[7] = tested on: glucoamylase; assay: Enzymatic hydrolysis by glucoamylase; assay type: biochemical
Procedure: Fifty mg aliquots of non-reducing saccharide preparations P I, P II, P III, P IV and P V in Experiment 4 were respectively dissolved in one ml of 50 mM acetate buffer (pH 4.5), admixed with one unit of glucoamylase commercialized by Seikagaku-Kogyo Co., Ltd., Tokyo, Japan, to effect enzymatic hydrolysis at 40° C. for 6 hours. HPLC analysis only detected glucose and trehalose in all resultant mixtures. The percentages and the molecular ratios of glucose to trehalose in each saccharide are in Table 5.

[8] = tested on: β-amylase; assay: Hydrolysis by β-amylase; assay type: biochemical
[9] = tested on: mice; assay: Acute toxicity test (Experiment 8); conditions: oral, highest possible doses
Description: (§2) By using 7-week old dd-strain mice, the non-reducing saccharide preparation P I, P II, P III, P IV or P V was orally administered to the mice for acute toxicity test.

[10] = Acute toxicity test (Experiment 8); conditions: mouse, in vivo, po
Description: as §2

[11] = tested on: α-glucosidase; assay: Hydrolysis by α-glucosidase derived from rice; assay type: biochemical; conditions: pH 4.0, 37°C., 18 hours
Procedure: as §1

[12] = one unit, pH 6.9, 37°C., 18 hours
[13] = one unit glucoamylase, pH 4.5, 40°C., 6 hours

Structure (SMILES): OC[C@H]1OC(O)[C@H](O)[C@@H](O)[C@@H]1O (stereo partly drawn) [Glucose]
Formation of saccharide from substrate [1]: no saccharide is formed
Percentage of remaining substrate on HPLC [1]: 100.0%
Coloration degree (480 nm) [2]: 1.671

Structure (SMILES): OC[C@H]1O[C@H](O[C@H]2[C@H](O)[C@@H](O)[C@@H](O[C@H]3[C@H](O)[C@@H](O)[C@@H](O[C@H]4[C@H](O)[C@@H](O)[C@@H](O[C@H]5[C@H](O)[C@@H](O)[C@@H](O[C@H]6[C@H](O)[C@@H](O)[C@@H](O[C@H]7[C@H](O)[C@@H](O)C(O)O[C@@H]7CO)O[C@@H]6CO)O[C@@H]5CO)O[C@@H]4CO)O[C@@H]3CO)O[C@@H]2CO)[C@H](O)[C@@H](O)[C@@H]1O (stereo partly drawn) [Maltoheptaose]
Percentage of newly formed product (P I to P V) on HPLC [1]: 93.4%
Percentage of remaining substrate on HPLC [1]: 6.7%
Coloration degree (480 nm) [2]: 0.271

Structure (SMILES): OC[C@H]1O[C@H](O[C@H]2[C@H](O)[C@@H](O)[C@@H](O[C@H]3[C@H](O)[C@@H](O)[C@@H](O[C@H]4[C@H](O)[C@@H](O)[C@@H](O[C@H]5[C@H](O)[C@@H](O)[C@@H](O[C@H]6[C@H](O)[C@@H](O)C(O)O[C@@H]6CO)O[C@@H]5CO)O[C@@H]4CO)O[C@@H]3CO)O[C@@H]2CO)[C@H](O)[C@@H](O)[C@@H]1O (stereo partly drawn) [Maltohexaose]
Percentage of newly formed product (P I to P V) on HPLC [1]: 93.5%
Percentage of remaining substrate on HPLC [1]: 6.5%
Coloration degree (480 nm) [2]: 0.318

Structure (SMILES): OC[C@H]1O[C@H](O[C@H]2[C@H](O)[C@@H](O)[C@@H](O[C@H]3[C@H](O)[C@@H](O)[C@@H](O[C@H]4[C@H](O)[C@@H](O)[C@@H](O[C@H]5[C@H](O)[C@@H](O)C(O)O[C@@H]5CO)O[C@@H]4CO)O[C@@H]3CO)O[C@@H]2CO)[C@H](O)[C@@H](O)[C@@H]1O (stereo partly drawn) [Maltopentaose]
Percentage of newly formed product (P I to P V) on HPLC [1]: 92.7%
Percentage of remaining substrate on HPLC [1]: 7.3%
Coloration degree (480 nm) [2]: 0.369

Structure (SMILES): OC[C@H]1O[C@H](O[C@H]2O[C@H](CO)[C@@H](O[C@H]3O[C@H](CO)[C@@H](O)[C@H](O)[C@H]3O)[C@H](O)[C@H]2O)[C@H](O)[C@@H](O)[C@@H]1O [P I, α-glucosyltrehalose]
DE (reducing power) [3]: 0.83
Percentage of reducing saccharide released (glucose, maltose, maltotriose, maltotetraose or maltopentaose) [4]: 6.5%
Percentage of trehalose released [4]: 17.5%
Saccharide composition of hydrolysate by rat intestinal acetone powder: Glucose [5]: 37.2%
Saccharide composition of hydrolysate by rat intestinal acetone powder: Other saccharides [5]: 0.4%
Saccharide composition of hydrolysate by rat intestinal acetone powder: Trehalose [5]: 62.4%
Hydrolysis by α-amylase [6]: not substantially hydrolyzed
Saccharide composition of hydrolysate by α-amylase: G1 (glucose) [6, 12]: 0
Saccharide composition of hydrolysate by α-amylase: G2 (maltose) [6, 12]: 0.4
Saccharide composition of hydrolysate by α-amylase: G3 (maltotriose) [6, 12]: 2.3
Saccharide composition of hydrolysate by α-amylase: P I [6, 12]: 97.3
Saccharide composition of hydrolysate by α-amylase: P II [6, 12]: 0
Hydrolysis by glucoamylase [7]: hydrolyzed into one glucose molecule and one trehalose molecule
Glucose [7, 13]: 36.2%
Molecular ratio (Glucose/Trehalose) [7, 13]: 1.07
Trehalose [7, 13]: 63.8%
Hydrolysis by β-amylase [8]: not hydrolyzed
Coloration degree relative to corresponding material maltooligosaccharides [2]: 3-6%
Coloration degree (480 nm) [2]: 0.027
Mortality [9]: no mouse died
LD50 [10]: ≥ 50000 mg/kg
Saccharide composition of hydrolysate by α-glucosidase: Glucose [11]: 36.5%
Saccharide composition of hydrolysate by α-glucosidase: Other saccharides [11]: 0.5%
Saccharide composition of hydrolysate by α-glucosidase: Trehalose [11]: 63.0%

Results, then the molecule that gave them:

Formation of saccharide from substrate [1]: no saccharide is formed
Percentage of remaining substrate on HPLC [1]: 100.0%
Coloration degree (480 nm) [2]: 0.926
Structure (SMILES): OC[C@H]1O[C@H](O[C@H]2[C@H](O)[C@@H](O)C(O)O[C@@H]2CO)[C@H](O)[C@@H](O)[C@@H]1O (mixture of isomers) [Maltose]

Percentage of newly formed product (P I to P V) on HPLC [1]: 85.6%
Percentage of remaining substrate on HPLC [1]: 14.4%
Coloration degree (480 nm) [2]: 0.475
Structure (SMILES): OC[C@H]1O[C@H](O[C@H]2[C@H](O)[C@@H](O)[C@@H](O[C@H]3[C@H](O)[C@@H](O)[C@@H](O[C@H]4[C@H](O)[C@@H](O)C(O)O[C@@H]4CO)O[C@@H]3CO)O[C@@H]2CO)[C@H](O)[C@@H](O)[C@@H]1O (stereo partly drawn) [Maltotetraose]

Percentage of newly formed product (P I to P V) on HPLC [1]: 35.0%
Percentage of remaining substrate on HPLC [1]: 65.0%
Coloration degree (480 nm) [2]: 0.623
Structure (SMILES): OC[C@H]1O[C@H](O[C@H]2[C@H](O)[C@@H](O)[C@@H](O[C@H]3[C@H](O)[C@@H](O)C(O)O[C@@H]3CO)O[C@@H]2CO)[C@H](O)[C@@H](O)[C@@H]1O (stereo partly drawn) [Maltotriose]
